Structures are written as SMILES.

In one test the target is JAK3 (Homo sapiens, UniProt P52333). Put plainly: JAK3 kinase ADP-Glo assay (Example 60). A general note: ADP-Glo first removes unused ATP, then detects ADP through luciferase.
For the next test, the target named is JAK1 (Homo sapiens, UniProt P23458). In words: JAK1 kinase ADP-Glo assay (Example 60).
Another test concerns the target T1, TYK2 (Homo sapiens, UniProt P29597).
T1 sequence (P29597 871-1187 limits assumed): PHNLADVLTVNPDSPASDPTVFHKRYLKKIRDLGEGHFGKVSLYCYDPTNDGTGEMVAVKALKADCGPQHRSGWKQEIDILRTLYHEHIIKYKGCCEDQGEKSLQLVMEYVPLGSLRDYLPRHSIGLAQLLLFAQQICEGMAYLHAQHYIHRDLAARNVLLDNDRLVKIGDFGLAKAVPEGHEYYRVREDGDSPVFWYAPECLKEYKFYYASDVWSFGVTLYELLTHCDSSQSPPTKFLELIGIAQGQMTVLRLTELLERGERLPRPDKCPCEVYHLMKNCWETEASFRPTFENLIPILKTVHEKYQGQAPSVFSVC
In words: TYK2 kinase ADP-Glo assay (Example 60).

Another test addresses JAK2 (Homo sapiens, UniProt O60674). In words: JAK2 kinase ADP-Glo assay (Example 60).

JAK2, sequence (O60674 826-1132 limits assumed): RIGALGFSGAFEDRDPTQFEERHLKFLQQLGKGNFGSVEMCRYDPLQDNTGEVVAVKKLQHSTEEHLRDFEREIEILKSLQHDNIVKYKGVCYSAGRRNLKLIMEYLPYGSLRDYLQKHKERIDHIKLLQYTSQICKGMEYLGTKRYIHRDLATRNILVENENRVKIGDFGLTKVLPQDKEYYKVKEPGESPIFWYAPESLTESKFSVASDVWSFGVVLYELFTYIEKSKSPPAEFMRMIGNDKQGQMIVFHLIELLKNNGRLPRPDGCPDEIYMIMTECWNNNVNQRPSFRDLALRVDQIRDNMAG
JAK1, sequence (P23458 850-1154 limits assumed): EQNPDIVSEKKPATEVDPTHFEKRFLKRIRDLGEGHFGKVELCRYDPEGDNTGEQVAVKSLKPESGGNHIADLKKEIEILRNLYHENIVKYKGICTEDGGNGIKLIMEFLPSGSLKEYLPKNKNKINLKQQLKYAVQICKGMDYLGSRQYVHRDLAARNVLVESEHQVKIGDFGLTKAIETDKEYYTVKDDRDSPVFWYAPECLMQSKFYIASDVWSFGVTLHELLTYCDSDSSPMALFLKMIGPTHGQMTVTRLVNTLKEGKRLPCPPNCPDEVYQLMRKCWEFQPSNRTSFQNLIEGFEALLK
JAK3, sequence (P52333 795-1124 limits assumed): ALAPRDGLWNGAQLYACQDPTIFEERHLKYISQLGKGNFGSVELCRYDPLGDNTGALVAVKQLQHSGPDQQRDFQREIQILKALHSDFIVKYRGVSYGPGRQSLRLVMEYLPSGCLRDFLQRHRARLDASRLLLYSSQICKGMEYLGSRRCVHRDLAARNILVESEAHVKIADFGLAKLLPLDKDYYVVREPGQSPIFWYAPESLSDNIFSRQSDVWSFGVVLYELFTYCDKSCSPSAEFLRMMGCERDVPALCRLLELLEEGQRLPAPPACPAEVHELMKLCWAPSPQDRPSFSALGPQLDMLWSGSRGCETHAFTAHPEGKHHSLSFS

For the molecule `CCc1cc(O)c(F)cc1-c1ccc2c(-c3nc4c([nH]3)CN(CC3CC3)C4)n[nH]c2c1` [MDI-208, 4-(3-(5-(cyclopropylmethyl)-1,4,5,6-tetrahydropyrrolo[3,4-d]imidazol-2-yl)-1H-indazol-6-yl)-5-ethyl-2-fluorophenol], the IC50 (as a rule, the concentration at which inhibition is half-maximal) against JAK3 was 1.11 nM; against JAK1 it was 0.153 nM; against TYK2, 9.31 nM; on JAK2, 0.44 nM.

For `CCc1cc(O)c(F)cc1-c1ccc2c(-c3nc4c([nH]3)CN(CC3CCC3)C4)n[nH]c2c1` [MDI-210, 4-(3-(5-(cyclobutylmethyl)-1,4,5,6-tetrahydropyrrolo[3,4-d]imidazol-2-yl)-1H-indazol-6-yl)-5-ethyl-2-fluorophenol], the IC50 at JAK3 is 0.979 nM; on JAK1 it was 0.347 nM; on TYK2 it was 31.5 nM; against JAK2 it was 1.11 nM.

With `CCc1cc(O)c(F)cc1-c1ccc2c(-c3nc4c([nH]3)CN(C(=O)c3ccnnc3)C4)n[nH]c2c1` [MDI-214, (2-(6-(2-ethyl-5-fluoro-4-hydroxyphenyl)-1H-indazol-3-yl)-pyrrolo[3,4-d]imidazol-5-(1H,4H,6H)-yl)(pyridazin-4-yl)ketone], the half-maximal inhibitory concentration (IC50) at JAK3 amounted to 0.352 nM; against JAK1, 0.303 nM; on TYK2, 2.8 nM; against JAK2, 0.273 nM.

For the molecule `CCc1cc(O)c(F)cc1-c1ccc2c(-c3nc4c([nH]3)CN(C(=O)c3cccnn3)C4)n[nH]c2c1` [MDI-215, (2-(6-(2-ethyl-5-fluoro-4-hydroxyphenyl)-1H-indazol-3-yl)-pyrrolo[3,4-d]imidazol-5-(1H,4H,6H)-yl)(pyridazin-3-yl)ketone], the IC50 against JAK3 worked out at 0.308 nM; against JAK1, 0.197 nM; against TYK2, 1.58 nM; at JAK2, 0.277 nM.

Take `CCc1cc(O)c(F)cc1-c1ccc2c(-c3nc4c([nH]3)CN(C(=O)N3CC[C@H](O)C3)C4)n[nH]c2c1` [MDI-216, (S)-(2-(6-(2-ethyl-5-fluoro-4-hydroxyphenyl)-1H-indazol-3-yl)-4,6-dihydropyrrolo[3,4-d]imidazol-5-(1H)-yl)(3-hydroxylpyrrolidin-1-yl)ketone]: the IC50 against JAK3 was found to be 0.247 nM; against JAK1, 0.134 nM; against TYK2, 1.62 nM; on JAK2, 0.233 nM.

As to `CCc1cc(O)c(F)cc1-c1ccc2c(-c3nc4c([nH]3)CN(S(=O)(=O)C3CC3)C4)n[nH]c2c1` [MDI-218, 4-(3-(5-(cyclopropanesulfonyl)-1,4,5,6-tetrahydropyrrolo[3,4-d]imidazol-2-yl)-1H-indazol-6-yl)-5-ethyl-2-fluorophenol], the half-maximal inhibitory concentration (IC50) against JAK3 was determined as 0.948 nM; against JAK1, 0.825 nM; against TYK2, 1.75 nM; at JAK2, 0.614 nM.

As for `CCc1cc(O)c(F)cc1-c1ccc2c(-c3nc4c([nH]3)CN(S(=O)(=O)C3CCC3)C4)n[nH]c2c1` [MDI-219, 4-(3-(5-(cyclobutylsulfonyl)-1,4,5,6-tetrahydropyrrolo[3,4-d]imidazol-2-yl)-1H-indazol-6-yl)-5-ethyl-2-fluorophenol], the half-inhibitory concentration (IC50) against JAK3 amounted to 2.29 nM; at JAK1 it was 1.38 nM; against TYK2 it was 1.88 nM; at JAK2, 1.38 nM.

Turning to `CCc1cc(O)c(F)cc1-c1ccc2c(-c3nc4c([nH]3)CN(S(=O)(=O)C3CCCC3)C4)n[nH]c2c1` [MDI-220, 4-(3-(5-(cyclopentylsulfonyl)-1,4,5,6-tetrahydropyrrolo[3,4-d]imidazol-2-yl)-1H-indazol-6-yl)-5-ethyl-2-fluorophenol], the IC50 against JAK3 came to 3.15 nM; at JAK1, 2.02 nM; on TYK2 it was 5.56 nM; on JAK2, 1.38 nM.

For the molecule `CCc1cc(O)c(F)cc1-c1ccc2c(-c3nc4c([nH]3)CN(Cc3cnn(C)c3)C4)n[nH]c2c1` [MDI-221, 5-ethyl-2-fluoro-4-(3-(5-((1-methyl-1H-pyrazol-4-yl)methyl)-1,4,5,6-tetrahydropyrrolo[3,4-d]imidazol-2-yl)-1H-indazol-6-yl)phenol], the half-inhibitory concentration (IC50) worked out at 0.379 nM against JAK3, 0.128 nM against JAK1, 7.6 nM at TYK2 and 0.363 nM against JAK2.

Consider `CCc1cc(O)c(F)cc1-c1ccc2c(-c3nc4c([nH]3)CN(C3CCCC3)C4)n[nH]c2c1` [MDI-224, 4-(3-(5-cyclopentyl-1,4,5,6-tetrahydropyrrolo[3,4-d]imidazol-2-yl)-1H-indazol-6-yl)-5-ethyl-2-fluorophenol], for which the IC50 against JAK3 was determined as 2.01 nM; against JAK1 it was 0.248 nM; against TYK2, 16.1 nM; on JAK2, 0.754 nM.

For the molecule `CCc1cc(O)c(F)cc1-c1ccc2c(-c3nc4c([nH]3)CN(C3CCOCC3)C4)n[nH]c2c1` [MDI-225, 5-ethyl-2-fluoro-4-(3-(5-(tetrahydro-2H-pyran-4-yl)-1,4,5,6-tetrahydropyrrolo[3,4-d]imidazol-2-yl)-1H-indazol-6-yl)phenol], the IC50 at JAK3 stood at 0.487 nM; on JAK1, 0.226 nM; on TYK2, 3.5 nM; against JAK2 it was 0.39 nM.

As for `CCC(=O)N1Cc2nc(-c3n[nH]c4cc(-c5cc(F)c(O)cc5CC)ccc34)[nH]c2C1` [MDI-227, 1-(2-(6-(2-ethyl-5-fluoro-4-hydroxyphenyl)-1H-indazol-3-yl)-4,6-dihydropyrrolo[3,4-d]imidazol-5-(1H)-yl)propan-1-one], the IC50 against JAK3 turned out to be 0.441 nM; against JAK1, 0.224 nM; at TYK2, 3.89 nM; at JAK2 it was 0.246 nM.

Take `CCc1cc(O)c(F)cc1-c1ccc2c(-c3nc4c([nH]3)CN(C(=O)C(C)C)C4)n[nH]c2c1` [MDI-228, 1-(2-(6-(2-ethyl-5-fluoro-4-hydroxyphenyl)-1H-indazol-3-yl)-4,6-dihydropyrrolo[3,4-d]imidazol-5-(1H)-yl)-2-methylpropan-1-one]: the 50% inhibitory concentration (IC50) on JAK3 was found to be 0.565 nM; against JAK1 it was 0.398 nM; against TYK2, 4.76 nM; at JAK2, 0.355 nM.

With `CCc1cc(O)c(F)cc1-c1ccc2c(-c3nc4c([nH]3)CN(C(=O)CC3CC3)C4)n[nH]c2c1` [MDI-229, 2-cyclopropyl-1-(2-(6-(2-ethyl-5-fluoro-4-hydroxyphenyl)-1H-indazol-3-yl)-4,6-dihydropyrrolo[3,4-d]imidazol-5-(1H)-yl)ethan-1-one], the IC50 at JAK3 worked out at 0.481 nM; on JAK1, 0.753 nM; against TYK2, 4.71 nM; against JAK2, 0.356 nM.

In the case of `CCc1cc(O)c(F)cc1-c1ccc2c(-c3nc4c([nH]3)CN(C(=O)CC(C)C)C4)n[nH]c2c1` [MDI-230, 1-(2-(6-(2-ethyl-5-fluoro-4-hydroxyphenyl)-1H-indazol-3-yl)-4,6-dihydropyrrolo[3,4-d]imidazol-5-(1H)-yl)-3-methylbutan-1-one], the half-inhibitory concentration (IC50) was determined as 0.821 nM on JAK3, 0.819 nM against JAK1, 6.57 nM against TYK2 and 0.555 nM on JAK2.

Regarding `CCc1cc(O)c(F)cc1-c1ccc2c(-c3nc4c([nH]3)CN(C(=O)N3CCCC3)C4)n[nH]c2c1` [MDI-231, (2-(6-(2-ethyl-5-fluoro-4-hydroxyphenyl)-1H-indazol-3-yl)-4,6-dihydropyrrolo[3,4-d]imidazol-5-(1H)-yl)(pyrrolidin-1-yl)ketone], the IC50 was determined as 0.893 nM on JAK3, 0.53 nM on JAK1, 1.31 nM against TYK2 and 1.17 nM at JAK2.

Turning to `CCc1cc(O)c(F)cc1-c1ccc2c(-c3nc4c([nH]3)CN(C(=O)N3CCC3)C4)n[nH]c2c1` [MDI-232, Azetidin-1-yl(2-(6-(2-ethyl-5-fluoro-4-hydroxyphenyl)-1H-indazol-3-yl)-4,6-dihydropyrrolo[3,4-d]imidazol-5-(1H)-yl)ketone], the IC50 on JAK3 worked out at 0.868 nM; against JAK1, 0.745 nM; on TYK2 it was 2.26 nM; on JAK2, 1.04 nM.

As to `CCc1cc(O)c(F)cc1-c1ccc2c(-c3nc4c([nH]3)CN(C(=O)N3CCCCC3)C4)n[nH]c2c1` [MDI-233, (2-(6-(2-ethyl-5-fluoro-4-hydroxyphenyl)-1H-indazol-3-yl)-4,6-dihydropyrrolo[3,4-d]imidazol-5-(1H)-yl)(piperidin-1-yl)ketone], the IC50 came out at 2.6 nM on JAK3, 1.31 nM against JAK1, 3.5 nM on TYK2 and 1.33 nM on JAK2.

Consider `CCc1cc(O)c(F)cc1-c1ccc2c(-c3nc4c([nH]3)CN(C(=O)N3CCOCC3)C4)n[nH]c2c1` [MDI-234, (2-(6-(2-ethyl-5-fluoro-4-hydroxyphenyl)-1H-indazol-3-yl)-4,6-dihydropyrrolo[3,4-d]imidazol-5-(1H)-yl)(morpholino)ketone], for which the concentration for half-maximal inhibition (IC50) against JAK3 was 0.375 nM; at JAK1 it was 0.206 nM; at TYK2, 0.438 nM; against JAK2 it was 0.737 nM.

For the molecule `CCc1cc(O)c(F)cc1-c1ccc2c(-c3nc4c([nH]3)CN(C(=O)N3CC[C@H](O)C3)C4)n[nH]c2n1` [MDI-255, (S)-(2-(6-(2-ethyl-5-fluoro-4-hydroxyphenyl)-1H-pyrazolo[3,4-b]pyridine-3-yl)-4,6-dihydropyrrolo[3,4-d]imidazol-5(1H)-yl)(3-hydroxylpyrrolidin-1-yl)ketone], the half-maximal inhibitory concentration (IC50) against JAK1 is 57.2 nM; against JAK2 it was 37.4 nM.

For the origin of these results see patent publication US12180215B2, “Substituted pyrrolo[3,4-d]imidazoles as JAK inhibitors” (HENAN MEDINNO PHARMACEUTICAL TECHNOLOGY CO., LTD., priority 2019, dated 2024).
